Test results reported in article PMC11579512, “Deoxybouvardin-glucoside induces apoptosis in non-small cell lung cancer cells by targeting EGFR/MET and AKT signaling pathway” (EXCLI Journal, 2024).

Legend:
[1] = system: caspase-3; assay: Immunoblot caspase-3 with NAC pretreatment, HCC827 and HCC827GR cells; format: cell-based, human; conditions: for caspase3 protein Ratio: control = 1.00
Experimental: (§1) HaCaT cells were grown in DMEM, whereas HCC827 and HCC827GR cells were grown in RPMI 1640. All culture media were supplemented with FBS (10 %) and P/S (1 %), and the cells were grown at 37 °C in 5 % CO2.
(§2) Cells were lysed in RIPA buffer, and protein concentration was determined using a Bio-Rad DC Protein Assay kit (Bio-Rad, Hercules, CA, USA). Protein samples from the cell lysates were resolved by sodium dodecyl sulfate-polyacrylamide gel electrophoresis and then transferred onto polyvinylidene fluoride membranes. The membranes were blocked with 3 % or 5 % skim milk and then incubated at 4 °C overnight with the indicated primary antibodies, followed by the corresponding horseradish peroxidase-conjugated secondary antibodies at RT for 2 h. Protein bands were visualized using western blotting luminol reagent solution and ImageQuant LAS 500 (GE Healthcare, Uppsala, Sweden). The density of the bands was quantified using ImageJ software (NIH, Bethesda, MD, USA).

[2] = molecular target: T1, MET (Homo sapiens, UniProt P08581); assay: In vitro ADP-Glo kinase assay, MET; format: biochemical
T1 construct: purchased Promega
T1 sequence (P08581 25-1390): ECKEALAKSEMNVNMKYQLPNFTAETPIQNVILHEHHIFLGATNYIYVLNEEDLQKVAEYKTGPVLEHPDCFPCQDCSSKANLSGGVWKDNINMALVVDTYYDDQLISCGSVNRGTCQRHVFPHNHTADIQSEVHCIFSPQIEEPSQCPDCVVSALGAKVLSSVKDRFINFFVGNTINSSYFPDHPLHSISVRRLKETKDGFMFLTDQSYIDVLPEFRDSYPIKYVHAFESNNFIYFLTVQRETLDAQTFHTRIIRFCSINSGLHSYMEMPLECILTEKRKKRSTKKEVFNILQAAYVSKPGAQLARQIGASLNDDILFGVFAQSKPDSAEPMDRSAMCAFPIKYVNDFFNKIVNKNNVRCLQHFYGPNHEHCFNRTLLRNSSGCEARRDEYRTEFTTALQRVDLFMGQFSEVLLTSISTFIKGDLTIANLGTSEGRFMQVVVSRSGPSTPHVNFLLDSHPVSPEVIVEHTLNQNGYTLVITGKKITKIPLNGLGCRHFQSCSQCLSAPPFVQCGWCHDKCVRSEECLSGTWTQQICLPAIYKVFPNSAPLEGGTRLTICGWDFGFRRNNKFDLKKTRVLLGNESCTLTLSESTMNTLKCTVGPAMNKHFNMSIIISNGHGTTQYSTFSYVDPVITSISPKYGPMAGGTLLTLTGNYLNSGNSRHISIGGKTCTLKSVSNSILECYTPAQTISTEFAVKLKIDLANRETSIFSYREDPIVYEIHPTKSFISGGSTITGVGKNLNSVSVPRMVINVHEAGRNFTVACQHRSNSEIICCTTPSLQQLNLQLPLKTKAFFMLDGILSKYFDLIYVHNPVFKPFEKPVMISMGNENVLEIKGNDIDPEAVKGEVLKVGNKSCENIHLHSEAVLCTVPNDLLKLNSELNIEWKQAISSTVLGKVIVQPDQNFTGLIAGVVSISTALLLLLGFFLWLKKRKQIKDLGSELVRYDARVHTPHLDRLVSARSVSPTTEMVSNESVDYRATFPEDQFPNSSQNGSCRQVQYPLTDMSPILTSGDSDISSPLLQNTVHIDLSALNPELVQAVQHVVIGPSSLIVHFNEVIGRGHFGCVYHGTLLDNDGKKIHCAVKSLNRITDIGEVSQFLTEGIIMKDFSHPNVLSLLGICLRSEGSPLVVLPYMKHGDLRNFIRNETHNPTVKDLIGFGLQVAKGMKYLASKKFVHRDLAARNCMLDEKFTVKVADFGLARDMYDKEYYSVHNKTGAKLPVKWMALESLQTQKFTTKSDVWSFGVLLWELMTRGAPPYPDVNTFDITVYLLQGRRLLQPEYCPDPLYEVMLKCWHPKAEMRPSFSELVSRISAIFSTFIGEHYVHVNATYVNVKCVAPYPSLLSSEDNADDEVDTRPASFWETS
Experimental: Subsequently, each well was added with ADP-Glo reagent and incubated for another 40 min. After completion of the kinase reaction, each well was added with kinase activity detection reagent and then incubated for 30 min. Liquid was dispensed with I.DOT (Dispendix, Stuttgart, Germany). Luminescence was measured on a Centro LB 960 microplate luminometer (Berthold Technologies).

[3] = system: p-EGFR; assay: Immunoblot p-EGFR with NAC pretreatment, HCC827 and HCC827GR cells; format: cell-based, human; conditions: for p-EGFR protein Ratio: control = 1.00
Experimental: as §1, §2

[4] = system: HCC827GR cells; assay: Soft agar anchorage-independent growth, HCC827GR; format: cell-based, human; conditions: 2 weeks
Experimental: The anchorage-independent cell growth assay was performed in 6-well plates with dual agar layers containing 0.6 % agar (lower layer) and 0.3 % agar (upper layer) supplemented with BME, 2 mM L-glutamine, 5 μg/ml gentamicin, and 10 % FBS. After 2 weeks of incubation, the number of colonies was assessed using a microscope (Leica, Wetzlar, Germany), and the mean colony area was analyzed using i-Solution ^TM software (Vancouver, BC, Canada).

[5] = system: p-EGFR (Y1068); assay: Western blot p-EGFR (Y1068) in HCC827 and HCC827GR cells; format: cell-based, human; conditions: DBG 3, 6, 12 nM, 48 h
Experimental: as §1, §2

[6] = system: Bim; assay: Immunoblot Bim in HCC827 and HCC827GR cells; format: cell-based, human; conditions: for Bim protein Ratio: DBG 0 nM 0.47
Experimental: as §1, §2

[7] = system: HCC827GR cells; assay: Annexin V/7-AAD apoptosis, HCC827GR; format: cell-based, human; parameters: Early apoptosis / Total apopt / Dead / Live: unit not given here; conditions: for apoptotic cells (annexin V+): 48 h, background 0.92 %; for Late apoptosis/Dead / Early apoptosis / Total apopt / Dead / Live: HCC827GR
Experimental: as §1
Apoptosis was measured using a Muse™ Annexin V & Dead Cell Kit (MCH100105, Merck Millipore). The fluorescent signal was analyzed with a Muse™ Cell Analyzer.

[8] = system: cyclin D1; assay: Immunoblot cyclin D1 in HCC827 and HCC827GR cells; format: cell-based, human; conditions: for cyclinD1 protein ratio: relative to DBG 0 nM = 1.00
Experimental: as §1, §2

With `COc1ccc(C[C@H]2C(=O)N[C@@H](C)C(=O)N(C)[C@H]3Cc4ccc(cc4)Oc4cc(ccc4O[C@@H]4O[C@H](CO)[C@@H](O)[C@H](O)[C@H]4O)C[C@@H](C(=O)N[C@H](C)C(=O)N[C@@H](C)C(=O)N2C)N(C)C3=O)cc1` [DBG, deoxybouvardin glucoside] the caspase3 protein/actin ([1]; HCC827, DBG 12 nM, control 0.39) was 0.07, the “caspase3 protein Ratio” value ([1]; HCC827, DBG 12 nM) was 0.18 and the caspase3 protein/actin ([1]; HCC827, NAC 4 mM + DBG 12 nM, control 0.39) was 0.60. For the same compound, the “caspase3 protein Ratio” value ([1]; HCC827, NAC 4 mM + DBG 12 nM) was 1.53, the caspase3 protein/actin ([1]; HCC827GR, DBG 12 nM, control 0.59) was 0.24 and the “caspase3 protein Ratio” value ([1]; HCC827GR, DBG 12 nM) was 0.41. For the same compound, the caspase3 protein/actin ([1]; HCC827GR, NAC 4 mM + DBG 12 nM, control 0.59) was 0.45, the “caspase3 protein Ratio” value ([1]; HCC827GR, NAC 4 mM + DBG 12 nM) was 0.77 and the IC50 ([2]; ADP-Glo, MET 4 ng, RT, 60 min, luminescence, n=3) was 7.26 nM. The “kinase activity, in words” value ([2]; DBG 3, 6, 12 nM) was “significantly inhibited”, the p-EGFR protein/actin ([3]; HCC827, DBG 12 nM, control 0.90) was 0.25 and the “p-EGFR protein Ratio” value ([3]; HCC827, DBG 12 nM) was 0.27. The p-EGFR protein/actin ([3]; HCC827, NAC 4 mM + DBG 12 nM, control 0.90) was 0.27, the “p-EGFR protein Ratio” value ([3]; HCC827, NAC 4 mM + DBG 12 nM) was 0.30 and the p-EGFR protein/actin ([3]; HCC827GR, DBG 12 nM, control 0.93) was 0.40. For the same compound, the “p-EGFR protein Ratio” value ([3]; HCC827GR, DBG 12 nM) was 0.43, the p-EGFR protein/actin ([3]; HCC827GR, NAC 4 mM + DBG 12 nM, control 0.93) was 0.30 and the “p-EGFR protein Ratio” value ([3]; HCC827GR, NAC 4 mM + DBG 12 nM) was 0.32. For the same compound, the “DBG-decreased phosphorylation of EGFR with NAC” value ([3]; NAC 4 mM pretreatment, DBG 48 h) was “did not change”, the “colony number, Control %” value ([4]; DBG 3 nM) was 40.00% and the “colony size, Control %” value ([4]; DBG 3 nM) was 77.33%. For the same compound, the “colony number, Control %” value ([4]; DBG 6 nM) was 13.10%, the “colony size, Control %” value ([4]; DBG 6 nM) was 72.67% and the “colony number, Control %” value ([4]; DBG 12 nM) was 0.00%. For the same compound, the “colony size, Control %” value ([4]; DBG 12 nM) was 0.00%, the “phosphorylation level of EGFR” value [5] was “decreased” and the Bim protein/actin ([6]; HCC827, DBG 3 nM, DBG 0 nM 0.53) was 0.53. The “Bim protein Ratio” value ([6]; HCC827, DBG 3 nM, relative to DBG 12 nM = 1.00) was 0.48, the Bim protein/actin ([6]; HCC827, DBG 6 nM, DBG 0 nM 0.53) was 0.73 and the “Bim protein Ratio” value ([6]; HCC827, DBG 6 nM, relative to DBG 12 nM = 1.00) was 0.65. The “Bim protein Ratio” value ([6]; HCC827, DBG 12 nM (reference of the ratio, 1.00)) was 1.00, the Bim protein/actin ([6]; HCC827, DBG 12 nM, DBG 0 nM 0.53) was 1.12 and the Bim protein/actin ([6]; HCC827GR, DBG 3 nM, DBG 0 nM 0.15) was 0.23. The “level of Bim” value ([6]; NSCLC cells, DBG) was “increased”, the “apoptotic cells (annexin V+)” value ([7]; DBG 3 nM) was 11.08% and the “apoptotic cells (annexin V+)” value ([7]; DBG 6 nM) was 25.58%. For the same compound, the “apoptotic cells (annexin V+)” value ([7]; DBG 12 nM) was 42.32%, the “Late apoptosis/Dead” value ([7]; DBG 3 nM, mean of 3 samples, untreated 0.23) was 0.23 and the Early apoptosis ([7]; DBG 3 nM, mean of 3 samples, untreated 0.68) was 10.85. The Total apopt ([7]; DBG 3 nM, mean of 3 samples, untreated 0.92) was 11.08, the Dead ([7]; DBG 3 nM, mean of 3 samples, untreated 5.53) was 0.05 and the Live ([7]; DBG 3 nM, mean of 3 samples, untreated 93.55) was 88.87. The Dead ([7]; DBG 3 nM, replicate 1) was 0.05, the Early apoptosis ([7]; DBG 3 nM, replicate 1) was 9.50 and the “Late apoptosis/Dead” value ([7]; DBG 3 nM, replicate 1) was 0.15. The Live ([7]; DBG 3 nM, replicate 1) was 90.30, the Total apopt ([7]; DBG 3 nM, replicate 1) was 9.65 and the Dead ([7]; DBG 3 nM, replicate 2) was 0.05. The Early apoptosis ([7]; DBG 3 nM, replicate 2) was 10.80, the “Late apoptosis/Dead” value ([7]; DBG 3 nM, replicate 2) was 0.25 and the Live ([7]; DBG 3 nM, replicate 2) was 88.90. It also gave a Total apopt ([7]; DBG 3 nM, replicate 2) of 11.05, a Dead ([7]; DBG 3 nM, replicate 3) of 0.05 and an Early apoptosis ([7]; DBG 3 nM, replicate 3) of 12.25. For the same compound, the “Late apoptosis/Dead” value ([7]; DBG 3 nM, replicate 3) was 0.30, the Live ([7]; DBG 3 nM, replicate 3) was 87.40 and the Total apopt ([7]; DBG 3 nM, replicate 3) was 12.55. For the same compound, the “Late apoptosis/Dead” value ([7]; DBG 6 nM, mean of 3 samples, untreated 0.23) was 0.50, the Early apoptosis ([7]; DBG 6 nM, mean of 3 samples, untreated 0.68) was 25.08 and the Total apopt ([7]; DBG 6 nM, mean of 3 samples, untreated 0.92) was 25.58. For the same compound, the Dead ([7]; DBG 6 nM, mean of 3 samples, untreated 5.53) was 0.10, the Live ([7]; DBG 6 nM, mean of 3 samples, untreated 93.55) was 74.32 and the Dead ([7]; DBG 6 nM, replicate 1) was 0.00. The Early apoptosis ([7]; DBG 6 nM, replicate 1) was 24.55, the “Late apoptosis/Dead” value ([7]; DBG 6 nM, replicate 1) was 0.55 and the Live ([7]; DBG 6 nM, replicate 1) was 74.90. It also gave a Total apopt ([7]; DBG 6 nM, replicate 1) of 25.10, a Dead ([7]; DBG 6 nM, replicate 2) of 0.15 and an Early apoptosis ([7]; DBG 6 nM, replicate 2) of 25.60. The “Late apoptosis/Dead” value ([7]; DBG 6 nM, replicate 2) was 0.40, the Live ([7]; DBG 6 nM, replicate 2) was 73.85 and the Total apopt ([7]; DBG 6 nM, replicate 2) was 26.00. For the same compound, the Dead ([7]; DBG 6 nM, replicate 3) was 0.15, the Early apoptosis ([7]; DBG 6 nM, replicate 3) was 25.10 and the “Late apoptosis/Dead” value ([7]; DBG 6 nM, replicate 3) was 0.55. For the same compound, the Live ([7]; DBG 6 nM, replicate 3) was 74.20, the Total apopt ([7]; DBG 6 nM, replicate 3) was 25.65 and the “Late apoptosis/Dead” value ([7]; DBG 12 nM, mean of 3 samples, untreated 0.23) was 10.45. The Early apoptosis ([7]; DBG 12 nM, mean of 3 samples, untreated 0.68) was 31.87, the Total apopt ([7]; DBG 12 nM, mean of 3 samples, untreated 0.92) was 42.32 and the Dead ([7]; DBG 12 nM, mean of 3 samples, untreated 5.53) was 0.13. For the same compound, the Live ([7]; DBG 12 nM, mean of 3 samples, untreated 93.55) was 57.55, the Dead ([7]; DBG 12 nM, replicate 1) was 0.15 and the Early apoptosis ([7]; DBG 12 nM, replicate 1) was 31.85. For the same compound, the “Late apoptosis/Dead” value ([7]; DBG 12 nM, replicate 1) was 10.85, the Live ([7]; DBG 12 nM, replicate 1) was 57.15 and the Total apopt ([7]; DBG 12 nM, replicate 1) was 42.70. For the same compound, the Dead ([7]; DBG 12 nM, replicate 2) was 0.15, the Early apoptosis ([7]; DBG 12 nM, replicate 2) was 31.65 and the “Late apoptosis/Dead” value ([7]; DBG 12 nM, replicate 2) was 10.50. The Live ([7]; DBG 12 nM, replicate 2) was 57.70, the Total apopt ([7]; DBG 12 nM, replicate 2) was 42.15 and the Dead ([7]; DBG 12 nM, replicate 3) was 0.10. The Early apoptosis ([7]; DBG 12 nM, replicate 3) was 32.10, the “Late apoptosis/Dead” value ([7]; DBG 12 nM, replicate 3) was 10.00 and the Live ([7]; DBG 12 nM, replicate 3) was 57.80. The Total apopt ([7]; DBG 12 nM, replicate 3) was 42.10, the “level of cyclin D1” value ([8]; DBG 3, 6, 12 nM, 48 h) was “significantly decreased” and the cyclinD1 protein/actin ([8]; HCC827, DBG 3 nM, DBG 0 nM 0.51) was 0.23. For the same compound, the cyclinD1 protein ratio ([8]; HCC827, DBG 3 nM) was 0.46, the cyclinD1 protein/actin ([8]; HCC827, DBG 6 nM, DBG 0 nM 0.51) was 0.14 and the cyclinD1 protein ratio ([8]; HCC827, DBG 6 nM) was 0.27. The cyclinD1 protein/actin ([8]; HCC827, DBG 12 nM, DBG 0 nM 0.51) was 0.09, the cyclinD1 protein ratio ([8]; HCC827, DBG 12 nM) was 0.17 and the cyclinD1 protein/actin ([8]; HCC827GR, DBG 3 nM, DBG 0 nM 0.73) was 0.37. It also gave a cyclinD1 protein ratio ([8]; HCC827GR, DBG 3 nM) of 0.51, a cyclinD1 protein/actin ([8]; HCC827GR, DBG 6 nM, DBG 0 nM 0.73) of 0.33 and a cyclinD1 protein ratio ([8]; HCC827GR, DBG 6 nM) of 0.45. For the same compound, the cyclinD1 protein/actin ([8]; HCC827GR, DBG 12 nM, DBG 0 nM 0.73) was 0.41 and the cyclinD1 protein ratio ([8]; HCC827GR, DBG 12 nM) was 0.57.
